The values below come from patent US20220073521A1, “PYRIMIDINE AND FIVE-MEMBERED NITROGEN HETEROCYCLE DERIVATIVE, PREPARATION METHOD THEREFOR, AND MEDICAL USES THEREOF” (Tuojie Biotech (Shanghai) Co., Ltd., priority 2018, published 2022).

One experiment has as its target T1, SHP2 E69K (Homo sapiens, UniProt Q06124, E69K).
T1 construct: recombinantly expressed full-length SHP2 (aa 1-593) with E69K and E76K; purchased Novoprotein Scientific Inc
T1 sequence (Q06124 1-593 E69K): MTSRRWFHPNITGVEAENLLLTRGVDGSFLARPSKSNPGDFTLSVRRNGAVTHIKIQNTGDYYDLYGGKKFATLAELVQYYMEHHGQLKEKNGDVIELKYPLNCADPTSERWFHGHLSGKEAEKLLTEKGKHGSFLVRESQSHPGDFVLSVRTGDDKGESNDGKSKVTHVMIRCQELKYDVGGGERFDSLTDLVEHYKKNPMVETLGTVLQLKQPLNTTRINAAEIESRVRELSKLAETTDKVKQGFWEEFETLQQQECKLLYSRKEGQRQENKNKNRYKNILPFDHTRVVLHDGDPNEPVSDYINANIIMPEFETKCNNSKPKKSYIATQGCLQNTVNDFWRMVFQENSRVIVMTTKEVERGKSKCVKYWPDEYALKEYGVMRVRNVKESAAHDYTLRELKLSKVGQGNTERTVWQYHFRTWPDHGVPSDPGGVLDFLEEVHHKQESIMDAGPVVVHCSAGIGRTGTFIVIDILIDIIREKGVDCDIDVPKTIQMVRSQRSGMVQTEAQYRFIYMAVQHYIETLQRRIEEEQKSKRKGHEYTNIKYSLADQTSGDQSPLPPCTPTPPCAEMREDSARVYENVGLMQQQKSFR
As to the kind of experiment: In vitro activity on SHP2 mutant E69K phosphatase. Format: biochemical.

The target of another experiment is T2, SHP2 E76K (Homo sapiens, UniProt Q06124, E76K).
T2 construct: recombinantly expressed full-length SHP2 (aa 1-593) with E69K and E76K; purchased Novoprotein Scientific Inc
T2 sequence (Q06124 1-593 E76K): T1 sequence (Q06124 1-593 E69K) with K69E, E76K
As to the kind of experiment: In vitro activity on SHP2 mutant E76K phosphatase. Format: biochemical.

The next experiment deals with T3, hERG potassium channel (Homo sapiens, UniProt Q12809).
T3 construct: host or cells: CHO hERG cells
The experiment can be described thus: hERG current inhibition experiment (manual patch clamp, CHO hERG cells). The experiment is classed as cell-based. The following applies: whole-cell patch clamp, tail current. Here is the method:
In this experiment, whole-cell current recording was performed using a manual patch clamp system (HEKA EPC-10 signal amplification and digital conversion system, purchased from HEKA Electronic, Germany). The round glass slide of which surface CHO hERG cells (provided by Sophion Bioscience Inc., Denmark, the cell generation number was P21) were grown on was placed in an electrophysiological recording slot under an inverted microscope. The recording slot was continuously perfused with extracellular fluid (approximately 1 mL per minute). Conventional whole-cell patch clamp current recording technique was used in the experiment. The experiments were performed at normal room temperature (˜25° C.). The cells were clamped at a voltage of −80 mV. Cell patch clamp voltage was depolarized to +20 mV to activate hERG potassium channel, and to −50 mV after 5 seconds to eliminate inactivation and generate tail currents. The tail current peak was used as a value of hERG current. When the hERG potassium current recorded in the above steps became steady under continuous perfusion of the extracellular fluid in the recording slot, the drug to be tested could be added to the perfusion, until the inhibition effect of the drug on hERG current reached a steady state. Generally, the overlapping of most recent three consecutive current recording lines was used as a criterion to determine whether the state was stable. After reaching the steady state, the recording slot was perfused with extracellular fluid until the hERG current returned to the value before the drug adding. The test data was analyzed by HEKA Patchmaster (V2x73.2), Microsoft Excel and the data analysis software provided by Graphpad Prism 5.0.

Molecules are shown by their SMILES. Substitutions are numbered along the chain they refer to. Read-outs that look alike come from different tables or passages of the source.

T3 sequence (Q12809 whole entry): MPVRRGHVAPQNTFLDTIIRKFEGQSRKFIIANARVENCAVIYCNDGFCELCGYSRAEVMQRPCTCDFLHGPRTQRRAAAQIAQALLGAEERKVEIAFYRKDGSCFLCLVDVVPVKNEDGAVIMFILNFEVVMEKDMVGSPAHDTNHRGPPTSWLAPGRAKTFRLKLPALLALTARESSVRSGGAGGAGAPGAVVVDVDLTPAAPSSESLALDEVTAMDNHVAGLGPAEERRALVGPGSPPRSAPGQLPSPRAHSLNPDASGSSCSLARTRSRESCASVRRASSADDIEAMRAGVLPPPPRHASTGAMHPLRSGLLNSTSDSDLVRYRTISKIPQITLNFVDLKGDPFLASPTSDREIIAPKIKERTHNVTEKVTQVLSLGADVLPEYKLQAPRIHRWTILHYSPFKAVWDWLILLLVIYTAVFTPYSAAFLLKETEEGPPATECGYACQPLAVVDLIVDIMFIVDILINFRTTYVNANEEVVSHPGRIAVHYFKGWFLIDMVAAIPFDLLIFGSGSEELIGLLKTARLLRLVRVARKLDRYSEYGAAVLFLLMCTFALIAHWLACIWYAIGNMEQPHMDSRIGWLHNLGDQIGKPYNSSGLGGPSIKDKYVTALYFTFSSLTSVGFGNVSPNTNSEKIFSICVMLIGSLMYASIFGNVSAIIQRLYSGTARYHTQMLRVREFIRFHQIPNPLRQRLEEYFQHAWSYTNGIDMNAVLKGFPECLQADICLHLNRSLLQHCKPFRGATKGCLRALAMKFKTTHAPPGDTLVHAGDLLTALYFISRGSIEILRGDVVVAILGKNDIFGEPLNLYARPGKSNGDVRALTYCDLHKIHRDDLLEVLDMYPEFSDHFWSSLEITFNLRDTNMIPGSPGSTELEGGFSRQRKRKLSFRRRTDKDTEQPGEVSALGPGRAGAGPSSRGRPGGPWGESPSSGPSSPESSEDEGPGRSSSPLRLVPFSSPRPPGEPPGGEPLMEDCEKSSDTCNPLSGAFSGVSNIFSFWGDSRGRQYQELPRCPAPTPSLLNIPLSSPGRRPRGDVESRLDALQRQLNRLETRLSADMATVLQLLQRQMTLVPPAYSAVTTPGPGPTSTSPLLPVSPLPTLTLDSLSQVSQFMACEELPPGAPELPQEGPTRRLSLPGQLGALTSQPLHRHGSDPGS
Protocol for SHP2 E69K: (§1) The reaction solution was shaked (350 rpm) at room temperature for 30 minutes. The reaction substrate DiFMUP with a final concentration of 30 μM was added, and the reaction solution was reacted at room temperature for 30 minutes. The phosphatase reaction was stopped by adding 5 μL of stop solution (60 mM HEPES, pH 7.5, 0.2% SDS).
Protocol for SHP2 E76K: as §1

On to `CNc1nccc(Sc2c(C)nc(N3CCC4(CC3)Cc3ncccc3[C@H]4N)n3ccnc23)c1Cl` [Example 41, (S)-1′-(8-((3-Chloro-2-(methylamino)pyridin-4-yl)thio)-7-methylimidazo[1,2-c]pyrimidin-5-yl)-5,7-dihydrospiro[cyclopenta[b]pyridine-6,4′-piperidin]-5-amine], for which the IC50 turned out to be 8.5 nM on SHP2 E69K (SHP2 E69K the activated polypeptide was added IC50, activated polypeptide IRS1 added); 0.91 nM on SHP2 E69K (SHP2 E69K the activated polypeptide was not added IC50, activated polypeptide not added); 134 nM on SHP2 E76K (SHP2 E76K the activated polypeptide was added IC50, activated polypeptide IRS1 added); 5.4 nM against SHP2 E76K (SHP2 E76K the activated polypeptide was not added IC50, activated polypeptide not added); 10200 nM on hERG potassium channel.
For the compound `CNc1nccc(Sc2cnc(N3CCC4(CC3)Cc3ncccc3[C@H]4N)n3ccnc23)c1Cl` [Example 43, (S)-1′-(8-((3-Chloro-2-(methylamino)pyridin-4-yl)thio)imidazo[1,2-c]pyrimidin-5-yl)-5,7-dihydrospiro[cyclopenta[b]pyridine-6,4′-piperidin]-5-amine], the IC50 stood at 7.1 nM at SHP2 E69K (activated polypeptide IRS1 added, read-out: SHP2 E69K the activated polypeptide was added IC50); 0.78 nM on SHP2 E69K (activated polypeptide not added, read-out: SHP2 E69K the activated polypeptide was not added IC50); 78 nM at SHP2 E76K (activated polypeptide IRS1 added, read-out: SHP2 E76K the activated polypeptide was added IC50); 4.2 nM on SHP2 E76K (activated polypeptide not added, read-out: SHP2 E76K the activated polypeptide was not added IC50); 10300 nM at hERG potassium channel.

One may read the IC50 as the midpoint of a concentration-inhibition curve.
